Measurements: ChEMBL document CHEMBL3507680, “University of Dundee, Gates Library screen for HepG2 cell viability”

Assay: Human HepG2 cell viability assay in 384 well format
Type: toxicity, cell-based
Set-up: dose 125 nL, time 70.5 hour; cytotoxicity at 70.5 h: concentration not given beside the values
Conditions: HepG2 cells, read-out: Inhibition

Compound | cytotoxicity at 70.5 h [%]
O=c1[nH]c2cc3c(cc2cc1CN1CCCC1c1ccccn1)CCC3 (stereo unspecified) | 9.53
Cc1c(C2SCC(=O)Nc3c2c(O)nn3C(C)C)cnn1C (stereo unspecified) | -26.6
Cc1ccc(Cl)c2ccc(NC(CO)CO)nc12 | 0.998
Cc1nc(NCc2cccnc2)c2c(n1)c(C)nn2C | -11.5
CNC(=O)[C@H]1C[C@@H]2CN(C(=O)c3cscn3)C[C@@H]2N1S(C)(=O)=O | -1.08
COc1cc(CNC(=O)NCc2c(C)cc(C)[nH]c2=O)ccc1C | -8.93
COCc1nc(NC(C)Cc2cc(C)n[nH]2)c2cnn(C)c2n1 (stereo unspecified) | -0.0562
CNC(=O)c1nc2c(s1)CCN(C(=O)c1cccnc1)CC2 | -0.11
CC(C)COc1cncc(NCC(O)c2ccco2)n1 (stereo unspecified) | 33.1
COCC(c1cccc(C(F)(F)F)c1)N(C)C(=O)c1cc(C)no1 (stereo unspecified) | 20
Cc1oncc1C(=O)N1CCCc2c(C#N)nn(C)c2C1 | -7.62
Cc1ccc(CS(=O)(=O)NCc2ccco2)cc1 | -4.19
NC(=O)CN1CCC(c2cccc(Oc3ccccc3)n2)CC1 | -1.34
CC(C(=O)NCc1ccnc(OC2CCCC2)c1)n1cncn1 (stereo unspecified) | -3.9
CCn1cc(S(=O)(=O)N2CCC(C)CC2)c(C)n1 | -14
O=C(c1ccccn1)N1C[C@@H]2CC[C@H](C1)N(C(=O)Cc1cccs1)C2 | -10
Cc1cc(NCCN)nc(-c2ccccc2O)n1 | 35.9
COc1cccc(CCC2CCCCN2)c1 (stereo unspecified) | 0.0655
Cn1cc(S(=O)(=O)NCC2CCN(C(=O)Oc3ccccc3)CC2)cn1 | 2.31
Cc1nn(C)cc1CN(C)C(=O)c1cccnc1 | 8.22
O=C(c1cc[nH]n1)N1CCOCC2(C1)CN(c1ccccc1)C(=O)CO2 (stereo unspecified) | -12.1

Compound | cytotoxicity at 70.5 h [%]
Cc1ccc2c(c1)OC1(NC2=O)C(=O)N(C)c2ccccc21 (stereo unspecified) | 16.7
CCc1nc(CN2CCCC(NCc3cnn(C(C)(C)C)c3)C2)no1 (stereo unspecified) | -12.7
CC(C)NC(=O)NCCn1cnc(C2CCCC2)cc1=O | -6.52
Cc1ccc(O[C@@H]2C[C@H]3CN(C(=O)c4cnccn4)CCN3C2)cc1 | -4.43
NC(=O)CSCC(=O)N1CCc2cc(Cl)cc(Cl)c2C1 | -10.4
NCCCC(=O)NCC1(O)CCCN(c2ccnc3cccnc23)C1 (stereo unspecified) | -4.51
CN1CCCCC1CC(=O)Nc1ccc2ncn(C)c2c1 (stereo unspecified) | 13.5
Cc1ccc(-c2nnc([C@H]3CCN(C4CCC4)C3)o2)cc1 | 16.3
O=C(CCc1nc(-c2cccnc2)no1)NCC1CCN(C2CC2)C1 (stereo unspecified) | -17.6
O=C(c1ccco1)N1CCC12CCN(c1ncc(F)cn1)CC2 | 0.431
CNC(=O)c1cccc(NC(=O)NCc2ccccc2)c1C | -10.1
O=S(=O)(CCN1CCCC1Cn1cncn1)c1ccccc1 (stereo unspecified) | -1.96
O=C(CCC1CCCO1)N1CCc2nc(-c3cnccn3)nc(O)c2C1 (stereo unspecified) | -3.93
Cc1nc2c(c(=O)n1C)CN(C(=O)C1CCCN(C(=O)N(C)C)C1)C2 (stereo unspecified) | -0.169
c1ncc2c(n1)CN(Cc1nc(-c3ccsc3)no1)CC2 | -14.7
COC(C)(C)CC(C)NCc1cc(-c2ccco2)on1 (stereo unspecified) | -11.4
COC[C@]12COC[C@H]1CN(C(=O)C1CCSCC1)C2 | -6.73
Cc1c(Br)cnn1CC(=O)Nc1ccon1 | -7.55
NC(=O)C1CCN(C(=O)c2cccc(OCc3cscn3)c2)CC1 | -12.5
CCCSc1ncc(C2CC(=O)NCc3nc4ccccn4c32)cn1 (stereo unspecified) | -3.19
CC(C)c1noc(CS(=O)(=O)CC(=O)NCCOc2ccccc2)n1 | -13.7

Compound | cytotoxicity at 70.5 h [%]
O=C(c1ccco1)N1CC[C@@H]2CN(C3CCOCC3)CCO[C@@H]2C1 | 0.698
O=C1CCCC2=C1C(c1ccccc1F)Nc1nonc1N2 (stereo unspecified) | -3.65
Fc1cccc(N2CCCC3(CN(Cc4ccco4)CCO3)C2)c1 (stereo unspecified) | -11.7
CCOCCn1nc(C)cc1C(=O)N(C)Cc1cccc2ncccc12 | 20.2
O=C(c1cnccn1)N1CCCC2(CCN(Cc3ccsc3)CC2)C1 | 3.52
CS(=O)(=O)c1cncnc1C1CCCN(C(=O)Nc2ccc(F)cc2)C1 (stereo unspecified) | -4.34
CN(C)S(=O)(=O)N1CCC(Oc2ccc(C#N)cn2)CC1 | -1.45
CCNC(=O)c1sccc1N(C)S(=O)(=O)c1ccc(Cl)cc1 | 1.21
CN1CCCC(c2cncc(C(=O)NCc3ccccc3Cl)n2)C1 (stereo unspecified) | -7.68
CC(=O)N1Cc2ccccc2OC2(CCN(C(=O)C3CC3)CC2)C1 | 25.4
CC(C)COC[C@@H]1CC[C@H]2[C@H](CCN2C(=O)c2ccncc2F)O1 | 1.98
CN1CCN(c2ccc(NCc3ccsc3)cn2)CC1 | -8.79
CCc1nc(C)c(C(=O)N2C[C@H]3CC[C@@H]2CN(S(=O)(=O)N(C)C)C3)s1 | 8.88
CC(C)[C@@H]1CN(CCOc2ccccc2)C[C@H]1NS(=O)(=O)N(C)C | -5.28
COc1cc(C)nc(N2CCN(Cc3nccn3C)CC2)n1 | 0.0501
COc1ccc2c(c1)nc1n2[C@@H](CNCc2ncccc2C)COC1 | -5.69
O=C(NCCn1ccnc1)c1cc(Br)c[nH]1 | -8.18
O=C1COC2(CCN(Cc3ccoc3)CC2)CN1c1ccccc1 | 5.1
CCc1nnc(CN2CC(n3cccn3)C2)o1 | -4.74
Cc1cc(CN(C)C(=O)NCc2ccccn2)no1 | -1.24
Cc1cnc(N2CCN3C[C@H](OCc4ccccn4)C[C@H]3C2)nc1 | -2.63

Compound | cytotoxicity at 70.5 h [%]
CCCOC1CCCN(c2ncnc3c2CCN(C(=O)C2CC2)C3)C1 (stereo unspecified) | -7.75
CN(C)c1nc2c(c(NCc3cc(O)ncn3)n1)CCCC2 | -4.94
CN(C)c1nc2n(c(=O)n1)CCN2C(=O)Nc1ccc(Cl)cc1 | -6.29
CCCS(=O)(=O)N1C[C@@H]2CC[C@H](C1)N(Cc1cscn1)C2=O | -9.73
Cc1nc(C(=O)N(C)CC2CC2)nn1-c1ccccc1C(C)C | 36
COCCNS(=O)(=O)c1c(C)sc2ccccc12 | -4.03
CN1CC(=O)N(c2ccsc2)CC12CCN(S(=O)(=O)c1ccccc1)C2 (stereo unspecified) | -109
O=C(COc1ccccc1)NCC1CCN(Cc2ccsc2)CC1 | -4.27
COC(=O)C(NC(=O)CCOC(C)C)c1cc(F)ccc1F (stereo unspecified) | 18.1
CN(C)c1nc2n(c(=O)n1)CCN2C(=O)Nc1ccc(Cl)c(Cl)c1 | -10.9
O=C(NCCSC1CCCC1)c1cc(Cl)ccn1 | 22.7
CCc1ncc2c(n1)CN(CC(=O)N1CCc3sccc3C1)CC2 | -9
Cc1cc(C)cc(OCCN(C)Cc2ccc(S(=O)(=O)N(C)C)o2)c1 | 19.6
CCNc1ncc(C)c(-c2cnn(C)c2)n1 | -13.2
Cc1cnc(CN(C)C2CCCN(c3cccnn3)C2)cn1 (stereo unspecified) | -0.507
CC(C)CN1C[C@@H]2CN(C(=O)c3cccn3C)C[C@@H]2C1=O | -7.2
CCN1CCN(C(=O)c2ccn(C)c(=O)c2)CC1 | 32.5
O=C(c1ccc(-n2ccnc2)cc1)N1CCN(c2cnccn2)CC1 | 2.67
